# Test results reported in ChEMBL document CHEMBL3774317, “Design and synthesis of novel tamoxifen analogues that avoid CYP2D6 metabolism” (Eur J Med Chem, 2016).
# Columns and labels:
# Type in all cases: functional
# [1] = Cytotoxicity against human HL-60(TB) cells assessed as cell growth at 10^-6 M after 48 hrs by SRB assay; conditions: HL-60, 48 h, read-out: Activity
# [2] = test system: K562; assay: Cytotoxicity against human K562 cells assessed as cell growth at 10^-7 M after 48 hrs by SRB assay; conditions: K562, 48 h, read-out: Activity
# [3] = Cytotoxicity against human COLO205 cells assessed as cell growth at 10^-8 M after 48 hrs by SRB assay; conditions: COLO 205, 48 h, read-out: Activity
# [4] = Cytotoxicity against human NCI-ADR-RES cells assessed as cell growth at 10^-7 M after 48 hrs by SRB assay; conditions: read-out: Activity
# [5] = Cytotoxicity against human SF295 cells assessed as cell growth at 10^-7 M after 48 hrs by SRB assay; conditions: SF-295, 48 h, read-out: Activity
# [6] = Cytotoxicity against human OVCAR4 cells assessed as cell growth at […] after 48 hrs by SRB assay; conditions: OVCAR-4, 48 h, read-out: Activity
# [7] = test system: MCF7; assay: Cytotoxicity against human MCF7 cells assessed as cell growth at 10^-6 M after 48 hrs by SRB assay; conditions: MCF7, 48 h, read-out: Activity
# [8] = Cytotoxicity against human SKOV3 cells assessed as cell growth at 10^-5 M after 48 hrs by SRB assay; conditions: SK-OV-3, 48 h, read-out: Activity
# [9] = test system: U-251; assay: Cytotoxicity against human U251 cells assessed as cell growth at 10^-8 M after 48 hrs by SRB assay; conditions: U-251, 48 h, read-out: Activity
# [10] = test system: EKVX; assay: Cytotoxicity against human EKVX cells assessed as cell growth at 10^-6 M after 48 hrs by SRB assay; conditions: read-out: Activity
# [11] = Cytotoxicity against human OVCAR4 cells assessed as cell growth at 10^-8 M after 48 hrs by SRB assay; conditions: OVCAR-4, 48 h, read-out: Activity
# [12] = Cytotoxicity against human RPMI8226 cells assessed as cell growth at 10^-7 M after 48 hrs by SRB assay; conditions: RPMI-8226, 48 h, read-out: Activity
# [13] = Cytotoxicity against human COLO205 cells assessed as cell growth at 10^-7 M after 48 hrs by SRB assay; conditions: COLO 205, 48 h, read-out: Activity
# [14] = Cytotoxicity against human OVCAR5 cells assessed as cell growth at 10^-7 M after 48 hrs by SRB assay; conditions: OVCAR-5, 48 h, read-out: Activity
# [15] = Cytotoxicity against human OVCAR4 cells assessed as cell growth at 10^-6 M after 48 hrs by SRB assay; conditions: OVCAR-4, 48 h, read-out: Activity
# [16] = test system: MDA-MB-435; assay: Cytotoxicity against human MDA-MB-435 cells assessed as cell growth at 10^-6 M after 48 hrs by SRB assay; conditions: MDA-MB-435, 48 h, read-out: Activity
# [17] = Cytotoxicity against human SKOV3 cells assessed as cell growth at 10^-4 M after 48 hrs by SRB assay; conditions: SK-OV-3, 48 h, read-out: Activity
# [18] = Cytotoxicity against human RPMI8226 cells assessed as cell growth at 10^-4 M after 48 hrs by SRB assay; conditions: RPMI-8226, 48 h, read-out: Activity
# [19] = test system: M14; assay: Cytotoxicity against human M14 cells assessed as cell growth at 0.5 uM after 48 hrs by SRB assay; conditions: M14, 48 h, read-out: Activity
# [20] = test system: KM12; assay: Cytotoxicity against human KM12 cells assessed as cell growth at 50 nM after 48 hrs by SRB assay; conditions: KM12, 48 h, read-out: Activity
# [21] = Cytotoxicity against human Caki1 cells assessed as cell growth at 50 nM after 48 hrs by SRB assay; conditions: CAKI-1, 48 h, read-out: Activity
# [22] = test system: NCI-H23; assay: Cytotoxicity against human NCI-H23 cells assessed as cell growth at 50 uM after 48 hrs by SRB assay; conditions: NCI-H23, 48 h, read-out: Activity
# [23] = Cytotoxicity against human SF539 cells assessed as cell growth at 5 nM after 48 hrs by SRB assay; conditions: SF-539, 48 h, read-out: Activity
# [24] = Cytotoxicity against human HL-60(TB) cells assessed as cell growth at 5 uM after 48 hrs by SRB assay; conditions: HL-60, 48 h, read-out: Activity
# [25] = Cytotoxicity against human HCT116 cells assessed as cell growth at 5 uM after 48 hrs by SRB assay; conditions: HCT-116, 48 h, read-out: Activity
# [26] = test system: MCF7; assay: Cytotoxicity against human MCF7 cells assessed as cell growth at 50 uM after 48 hrs by SRB assay; conditions: MCF7, 48 h, read-out: Activity
# [27] = test system: MDA-MB-435; assay: Cytotoxicity against human MDA-MB-435 cells assessed as cell growth at 5 uM after 48 hrs by SRB assay; conditions: MDA-MB-435, 48 h, read-out: Activity
# [28] = test system: SN12C; assay: Cytotoxicity against human SN12C cells assessed as cell growth at 0.5 uM after 48 hrs by SRB assay; conditions: read-out: Activity
# [29] = Cytotoxicity against human MOLT4 cells assessed as cell growth at 5 nM after 48 hrs by SRB assay; conditions: MOLT-4, 48 h, read-out: Activity
# [30] = Cytotoxicity against human Hs 578T cells assessed as cell growth at 50 nM after 48 hrs by SRB assay; conditions: read-out: Activity
# [31] = test system: NCI-H23; assay: Cytotoxicity against human NCI-H23 cells assessed as cell growth at 5 uM after 48 hrs by SRB assay; conditions: NCI-H23, 48 h, read-out: Activity
# [32] = test system: NCI-H322M; assay: Cytotoxicity against human NCI-H322M cells assessed as cell growth at 50 nM after 48 hrs by SRB assay; conditions: read-out: Activity
# [33] = Cytotoxicity against human LOXIMVI cells assessed as cell growth at 0.5 uM after 48 hrs by SRB assay; conditions: LOX IMVI, read-out: Activity
# [34] = Cytotoxicity against human SF539 cells assessed as cell growth at 0.5 uM after 48 hrs by SRB assay; conditions: SF-539, 48 h, read-out: Activity
# [35] = Cytotoxicity against human IGROV1 cells assessed as cell growth at 5 uM after 48 hrs by SRB assay; conditions: IGROV-1, 48 h, read-out: Activity
# [36] = test system: 786-0; assay: Cytotoxicity against human 786-0 cells assessed as cell growth at 0.5 uM after 48 hrs by SRB assay; conditions: 786-0, 48 h, read-out: Activity
# [37] = test system: A498; assay: Cytotoxicity against human A498 cells assessed as cell growth at 5 nM after 48 hrs by SRB assay; conditions: A498, 48 h, read-out: Activity
# [38] = Cytotoxicity against human TK10 cells assessed as cell growth at 5 uM after 48 hrs by SRB assay; conditions: TK-10, 48 h, read-out: Activity
# [39] = test system: CCRF-CEM; assay: Cytotoxicity against human CCRF-CEM cells assessed as cell growth at 50 nM after 48 hrs by SRB assay; conditions: read-out: Activity
# [40] = test system: MDA-MB-435; assay: Cytotoxicity against human MDA-MB-435 cells assessed as cell growth at 5 nM after 48 hrs by SRB assay; conditions: MDA-MB-435, 48 h, read-out: Activity
# [41] = Cytotoxicity against human SF268 cells assessed as cell growth at 5 uM after 48 hrs by SRB assay; conditions: SF-268, 48 h, read-out: Activity
# [42] = Cytotoxicity against human TK10 cells assessed as cell growth at 5 nM after 48 hrs by SRB assay; conditions: TK-10, 48 h, read-out: Activity
smiles,measurement,setting,value
C/C(=C(/c1ccc(O)cc1)c1ccc(OCCN2CCCC2)cc1)c1ccccc1,growth at 1 µM,[1],90%
same,growth at 0.1 µM,[2],96%
same,growth at 0.01 µM,[3],93%
same,growth at 0.1 µM,[4],97%
same,growth at 0.1 µM,[5],94%
same,growth at 0.1 µM,[6],95%
same,growth at 1 µM,[7],36%
same,growth at 10 µM,[8],13%
same,growth at 0.01 µM,[9],103%
same,growth at 1 µM,[10],78%
same,growth at 0.01 µM,[11],90%
same,growth at 0.1 µM,[12],103%
same,growth at 0.1 µM,[13],96%
same,growth at 0.1 µM,[14],90%
same,growth at 1 µM,[15],89%
same,growth at 1 µM,[16],87%
same,growth at 100 µM,[17],-98%
same,growth at 100 µM,[18],-57%
CCCCCCCCCC(=O)Oc1ccc(/C(=C(/C)c2ccccc2)c2ccc(OCCN3CCCC3)cc2)cc1,growth at 0.5 µM,[19],42%
same,growth at 0.05 µM,[20],98%
same,growth at 0.05 µM,[21],82%
same,growth at 50 µM,[22],-78%
same,growth at 0.005 µM,[23],105%
same,growth at 5 µM,[24],94%
same,growth at 5 µM,[25],85%
same,growth at 50 µM,[26],-79%
same,growth at 5 µM,[27],82%
same,growth at 0.5 µM,[28],88%
same,growth at 0.005 µM,[29],97%
same,growth at 0.05 µM,[30],92%
same,growth at 5 µM,[31],80%
same,growth at 0.05 µM,[32],93%
same,growth at 0.5 µM,[33],62%
same,growth at 0.5 µM,[34],72%
same,growth at 5 µM,[35],84%
same,growth at 0.5 µM,[36],79%
same,growth at 0.005 µM,[37],61%
same,growth at 5 µM,[38],95%
same,growth at 0.05 µM,[39],100%
same,growth at 0.005 µM,[40],99%
same,growth at 5 µM,[41],83%
same,growth at 0.005 µM,[42],96%
